Results published in patent publication US11266715B2, “C3A receptor agonists for use against ischemic brain injury, stroke, traumatic brain injury, spinal cord injury and neurodegenerative disorders” (priority 2016, dated 2022).

Tests used:
[1] = system: WT mice subjected to photothrombotic stroke in the motor cortex; test: Cylinder test (spontaneous forelimb asymmetry) after photothrombotic stroke; type: in vivo, mouse
Protocol: Cortical photothrombosis was induced using the Rose Bengal method (Lee et al., 2007; Watson et al., 1985) with some modifications. Anesthesia was induced with isoflurane (Forene®, Abbott) in air and oxygen (1:1) initially at 5% and reduced to 2.5% during the surgical procedure. Body temperature was monitored by a rectal probe and maintained at 37° C. using a homeothermic control unit (Harvard Apparatus). Anesthetized mice were placed in a stereotaxic frame, the skull was exposed through a midline scalp incision and Rose Bengal (200 μl, 10 mg/ml solution in sterile saline, Sigma) was injected intraperitoneally. After 5 min, the skull and underlying brain tissue were illuminated for 12 min by a 2 mm diameter cold laser beam (50 mW, 561 nm; Cobolt AB) positioned at AP +0.5 mm and ML −2.7 mm relative to Bregma, targeting the border between left primary somatosensory and motor cortex (Porritt et al., 2012). For intervention experiments targeting motor cortex, stroke was induced as above with the following modifications: Transcranial illumination lasting 15 min was delivered using cold light source (LQ1600, Fiberoptic-Heim AG) equipped with 2 mm wide fiber optic probe and directed to AP +0 and ML −1.5 relative to Bregma. After illumination, the scalp was sutured and mice were placed in a warm cage for 45 min to recover from anesthesia prior to being returned to the home cage. Mice were provided with moist mashed food placed on the floor of the home cage and their weight was monitored daily for 7 days after surgery. There were no significant differences in body weight, body temperature (36.5±0.5° C.), duration of surgery, or post-stroke mortality between cohorts. Each cohort contained an even distribution of mice from the matched strains or treatment groups.
Purified human C3a peptide (Complement Technologies) was diluted in sterile phosphate buffered saline (PBS) to a concentration of 200 nM and a total of 20 μl (10 μl/nostril; corresponding to approximately 1.13 μg/kg body weight) of peptide solution or PBS was given intranasally to awake, hand-restrained mice held in a supine position. Solutions were administered through a pipette tip, drop-wise in 5 μl portions divided by 1 min intervals to allow for absorption. C3a or PBS was given every 24 hours on days 7 to 21 post-stroke for the short-term study or on days 7 to 28 post-stroke for the long-term study. Mice were assigned to C3a or PBS treatment using randomization stratified by body weight to avoid potential confounding effects of body weight on behavioural performance. The investigators carrying out behavioural studies and analysing data were blinded to treatment group. For the assessment of potential systemic anaphylactic response due to intranasal C3a inoculation, body temperature was monitored using a rectal temperature probe (Harvard Apparatus) inserted approximately 4 mm into the rectum of awake mice restrained by the scruff. Baseline temperature was taken before intranasal administration and 5, 15, 30, 45 and 75 min after C3a or PBS administration.
Functional impairment of mice treated intranasally with C3a or vehicle was assessed using a modified cylinder test and a grid walking task to closely evaluate forepaw function. Mice were tested once on each task one week before stroke induction to establish baseline performance. Next, they were tested on days 7, 14 and 21 (short-term study) or days 7, 14, 28, 42 and 56 (long-term study) post-stroke. […]

[2] = system: mice subjected to neonatal HI injury; test: Open field after neonatal HI injury; type: in vivo, mouse; details: P50, 3 days treatment
Protocol: In the short-term study (3 days of intranasal treatment), 3 groups of WT mice were used; animals subjected to neonatal HI injury and treated with either C3a (HI-C3a, n=18) or PBS (HI-PBS, n=18) and sham-operated animals treated with PBS (SHAM-PBS, n=19). These mice were tested in an open field and object recognition test (ORT) at P50-P54 and brains were collected at P55 (FIG. 8A).
Purified human C3a (Complement Technology Inc., Tyler, Tex., USA) was diluted in sterile phosphate buffered saline (PBS) to a concentration of 200 nM, and a total of 8 μl i.e. […] (4 μl/nostril; corresponding to ca. 2.56 μg/kg body weight) of peptide solution or PBS was given intranasally to awake and hand-restrained mice held in a supine position. Solutions were administered through a pipette tip, drop-wise in 2 μl-portions divided by 1 min intervals to allow for absorption. […] C3a or PBS was given every 24 hours for three (short-term study) or seven (long-term study) days starting 1 h after HI induction, i.e. between P9 and P11 or P9 and P15, respectively. Mice in each litter were randomly assigned to C3a or PBS treatment. Sham animals received PBS. […]
The activity of each animal on the first day of habituation to the object recognition test apparatus was recorded as an open field task to study locomotor and exploratory activities (Leke et al., 2012). […]

C3a: Purified human C3a peptide (Complement Technologies), C3a receptor agonist, amino acid sequence SEQ ID NO: 1
cylinder task average scores on last day of testing, C3a vs PBS ([1]; long-term study, day 56, Sidak's test P=0.0687): only a trend toward a difference between groups | cylinder task performance at days 28 and 56 vs day 7 ([1]; long-term study, Dunnett's test P=0.032 and P=0.0019): sustained functional improvement | mice that improved affected paw usage between day 7 and day 56 ([1]; long-term study, paired t-test P=0.009): 8/10 | right paw use for body support, course between days 7 and 21 ([1]; short-term study, C3a days 7-21, n=10 mice/group): continuous improvement | frequency of right paw use on day 21 vs baseline ([1]; short-term study, P=0.062): did not differ from baseline performance | anxiety-like behavior (centre distance and time, rearing, grooming) [2]: anxiety-like behavior was not induced | general exploratory and locomotor activities (speed, activity, locomotion time, distance) [2]: did not affect general exploratory and locomotor activities
